Measurements from BindingDB's records for doi:10.1021/jm960455s (Bristol-Myers Squibb Pharmaceutical Research Institute, 1997).
Non-standard residues stand in square brackets, D forms with d. Residues, ends and D or L forms follow the SMILES beside them. *: point of attachment. Phe(4-guanidino) = N=C(N)Nc1ccc(C[CH](N)C(=O)O)cc1; Phe(4-F) = N[CH](Cc1ccc(F)cc1)C(=O)O; 2Nal = N[C@@H](Cc1ccc2ccccc2c1)C(=O)O; Benzoyl(4-Cl) = O=C(c1ccc(Cl)cc1)*; X5 = O=C(c1cc2ccccc2[nH]1)*; βAla = NCCC(=O)O

Columns and labels:
[1] = Effective concentration for stimulation of platelet aggregation
[2] = Concentration of compound required to inhibit agonist (SFLLRNP-NH2, at 3 uM) induced platelet aggregation by 50%
[3] = as above; remark: listed apart in the source

Row | SMILES | EC50 [1] [nM] | also measured
1 | COc1ccc(C[C@H](NC(=O)[C@@H](N)CO)C(=O)N[C@@H](CC(C)C)C(=O)N[C@@H](CC(C)C)C(=O)N[C@@H](CCCN=C(N)N)C(N)=O)cc1 | 720 | –
2 | CC(C)CC(NC(=O)C(Cc1ccc(N=C(N)N)cc1)NC(=O)C(Cc1ccc(F)cc1)NC(=O)c1cc2ccccc2[nH]1)C(=O)NC(CCCNC(=N)N)C(N)=O (stereo not drawn) [1H-Indole-2-carboxylic acid [1-[1-[1-(1-carbamoyl-4-guanidino-butylcarbamoyl)-3-methyl-butylcarbamoyl]-2-(4-guanidino-phenyl)-ethylcarbamoyl]-2-(4-fluoro-phenyl)-ethyl]-amide] (X5-[Phe(4-F)][Phe(4-guanidino)]LR-NH2; configuration not given here) | 1800 | –
3 | CC(=O)N(C(=O)C=Cc1cccc(Cl)c1)C(Cc1ccc(F)cc1)C(=O)NC(Cc1ccc(N=C(N)N)cc1)C(=O)NC(CC(C)C)C(=O)NC(CCCNC(=N)N)C(N)=O (stereo not drawn) [2-[2-[2-{Acetyl-[(E)-3-(3-chloro-phenyl)-acryloyl]-amino}-3-(4-fluoro-phenyl)-propionylamino]-3-(4-guanidino-phenyl)-propionylamino]-4-methyl-pentanoic acid (1-carbamoyl-4-guanidino-butyl)-amide] | – | IC50 [2]: 80 nM
4 | CC(=O)N(C(=O)C=Cc1ccccc1)C(Cc1ccc(F)cc1)C(=O)NC(Cc1ccc(N)cc1)C(=O)NC(CC(C)C)C(=O)NC(CCCNC(=N)N)C(N)=O (stereo not drawn) [2-[2-[2-{Acetyl-[(E)-(3-phenyl-acryloyl)]-amino}-3-(4-fluoro-phenyl)-propionylamino]-3-(4-amino-phenyl)-propionylamino]-4-methyl-pentanoic acid (1-carbamoyl-4-guanidino-butyl)-amide] | 60000 | –
5 | CC(=O)N(C(=O)c1ccc(-c2ccccc2)cc1)C(Cc1ccc(F)cc1)C(=O)NC(Cc1ccc(N=C(N)N)cc1)C(=O)NC(CC(C)C)C(=O)NC(CCCNC(=N)N)C(N)=O (stereo not drawn) [Biphenyl-4-carboxylic acid acetyl-[1-[1-[1-(1-carbamoyl-4-guanidino-butylcarbamoyl)-3-methyl-butylcarbamoyl]-2-(4-guanidino-phenyl)-ethylcarbamoyl]-2-(4-fluoro-phenyl)-ethyl]-amide] | – | IC50 [3]: 430 nM

Further lines, with some results ahead:

Row | EC50 [1] [nM] | SMILES | also measured
6 | 270 | CC(=O)NCCC(=O)N[C@@H](Cc1ccc(F)cc1)C(=O)N[C@@H](Cc1ccc2ccccc2c1)C(=O)N[C@@H](CC(C)C)C(=O)N[C@@H](CCCN=C(N)N)C(N)=O [2-{(R)-2-[2-(3-Acetylamino-propionylamino)-3-(4-fluoro-phenyl)-propionylamino]-3-naphthalen-2-yl-propionylamino}-4-methyl-pentanoic acid (1-carbamoyl-4-guanidino-butyl)-amide] (Ac-[βAla][Phe(4-F)][2Nal]LR-NH2) | –
7 | 67000 | CC(=O)N(C(=O)C=Cc1ccccc1)C(Cc1ccc(F)cc1)C(=O)NC(=O)NCCCC(NC(=O)C(CC(C)C)NC(=O)C(N)CCCNC(=N)N)C(=O)O (stereo not drawn) [5-{3-[2-{Acetyl-[(E)-(3-phenyl-acryloyl)]-amino}-3-(4-fluoro-phenyl)-propionyl]-ureido}-2-[2-(2-amino-5-guanidino-pentanoylamino)-4-methyl-pentanoylamino]-pentanoic acid] | –
8 | 3700 | CC(C)CC(NC(=O)C(Cc1ccc(N=C(N)N)cc1)NC(=O)C(Cc1ccc(F)cc1)NC(=O)c1ccc(Cl)cc1)C(=O)NC(CCCNC(=N)N)C(N)=O (stereo not drawn) [N-[1-[1-[1-(1-Carbamoyl-4-guanidino-butylcarbamoyl)-3-methyl-butylcarbamoyl]-2-(4-guanidino-phenyl)-ethylcarbamoyl]-2-(4-fluoro-phenyl)-ethyl]-4-chloro-benzamide] ({Benzoyl(4-Cl)}-[Phe(4-F)][Phe(4-guanidino)]LR-NH2; configuration not given here) | –
